Assays:
[1] = test system: arthritis induced by monoclonal antibodies raised against type II collagen, plus LPS; assay: Collagen monoclonal antibody (mABs) + LPS induced arthritis, hind paw volume; format: in vivo, BALB/c strain mice; conditions: for inhibition of increase in hind paw volume: 30 mg/kg orally x3
Procedure: Groups of 3 BALB/c strain mice, 6-7 weeks of age, were used for the induction of arthritis by monoclonal antibodies (mABs) raised against type II collagen, plus lipopolysaccharide (LPS). A combination of 4 different mABs (D8, F10, DI-2G and A2) totaling 4 mg/mouse was administered to the animal intravenously on day 0, followed by intravenous challenge with […] of LPS 72 hours later (day 3). From day 3, test substance and vehicle were each administered orally once daily for 3 consecutive days. For each animal, volumes of both hind paws were measured using a plethysmometer with water cell (12 mm diameter) on Days 0, 5, 7, 10, 14 and 17.
C0 (Cn): volume of day 0 (day n) in vehicle control
T0 (Tn): volume of day 0 (day n) in test compound-treated group
Reduction of edema in the hind paws by 30% or more is considered significant.

[2] = test system: colorectal cancer cell lines (HT29 & HCT116); assay: Microarray differential gene expression (CodeLink Human Whole Genome Bioarrays); format: cell-based
IL-4 = assay: Mediator release, IL-4 (Con A-stimulated PBML, sandwich ELISA); format: cell-based; conditions: Homo sapiens
Procedure: In this experiment, test compound and/or vehicle were preincubated with human peripheral blood mononuclear leukocyte (PBML, 1×10^6/ml) in RPMI buffer pH 7.4 for 2 hours. Concanavalin A (Con A, 20 μg/ml) was then added to stimulate the cells overnight in 5% CO2 at 37° C. IL-4 and IL-10 cytokine levels in the conditioned medium were then quantified using a sandwich ELISA kit. Compounds were screened at 10, 1, 0.1, 0.01 and 0.001 μM.

## CCN(CC)CCNc1ccc2ncn3c4ccc(O)cc4c(=O)c1c23 [Symadex™]
[1]; day 5, 3 consecutive daily oral doses at 30 mg/kg from day 3, vehicle 42%
  increase in hind paw volume: 32%
[1]; day 10
  inhibition of increase in hind paw volume: 61%
[1]; day 10, 3 consecutive daily oral doses at 30 mg/kg, vehicle 75%
  increase in hind paw volume: 29%
[1]; day 14
  inhibition of increase in hind paw volume: 74%
[1]; day 14, 3 consecutive daily oral doses at 30 mg/kg, vehicle 70%
  increase in hind paw volume: 18%
[1]; day 17
  inhibition of increase in hind paw volume: 59%
[1]; day 17, 3 consecutive daily oral doses at 30 mg/kg, vehicle 47%
  increase in hind paw volume: 19%
[2]; array of 55,000 gene fragment accessions, cells grown at concentration
  number of down-regulated genes significantly represented in both cell types: 271
[2]; gene ACYP1
  MEAN FOLD CHANGE OVER CONTROL: −2.07
[2]; gene ADCYAP1
  MEAN FOLD CHANGE OVER CONTROL: −21.74
[2]; gene ADH1C
  MEAN FOLD CHANGE OVER CONTROL: −12.02
[2]; gene AGT
  MEAN FOLD CHANGE OVER CONTROL: −22.71
[2]; gene ALG5
  MEAN FOLD CHANGE OVER CONTROL: −2.71
[2]; gene ANAPC4
  MEAN FOLD CHANGE OVER CONTROL: −1.92
[2]; gene APOA1
  MEAN FOLD CHANGE OVER CONTROL: −13.15
[2]; gene ARL6IP
  MEAN FOLD CHANGE OVER CONTROL: −2.29
[2]; gene ASAH2
  MEAN FOLD CHANGE OVER CONTROL: −2.21
[2]; gene HAT1
  MEAN FOLD CHANGE OVER CONTROL: −2.63
[2]; gene HMGB1
  MEAN FOLD CHANGE OVER CONTROL: −1.97
[2]; gene HMMR
  MEAN FOLD CHANGE OVER CONTROL: −2.94
[2]; gene HNF4A
  MEAN FOLD CHANGE OVER CONTROL: −7.42
[2]; gene HNRPA2B1
  MEAN FOLD CHANGE OVER CONTROL: −1.93
[2]; gene HSGT1
  MEAN FOLD CHANGE OVER CONTROL: −2.08
[2]; gene HSPB2
  MEAN FOLD CHANGE OVER CONTROL: −13.76
[2]; gene IBSP
  MEAN FOLD CHANGE OVER CONTROL: −58.56
[2]; gene IL1RAP
  MEAN FOLD CHANGE OVER CONTROL: −11.23
[2]; gene IL1RL1
  MEAN FOLD CHANGE OVER CONTROL: −28.60
[2]; gene IL7R
  MEAN FOLD CHANGE OVER CONTROL: −25.20
[2]; gene IL13RA2
  MEAN FOLD CHANGE OVER CONTROL: −9.79
[2]; gene ITGA2B
  MEAN FOLD CHANGE OVER CONTROL: −10.64
[2]; gene ITGA9
  MEAN FOLD CHANGE OVER CONTROL: −27.91
[2]; gene ITGAE
  MEAN FOLD CHANGE OVER CONTROL: −2.12
[2]; gene ITGB3BP
  MEAN FOLD CHANGE OVER CONTROL: −2.73
[2]; gene ITSN1
  MEAN FOLD CHANGE OVER CONTROL: −15.06
[2]; gene KCNJ12
  MEAN FOLD CHANGE OVER CONTROL: −15.93
[2]; gene KCNJ15
  MEAN FOLD CHANGE OVER CONTROL: −6.83
[2]; gene KCNQ2
  MEAN FOLD CHANGE OVER CONTROL: −24.13
[2]; gene KIAA0089
  MEAN FOLD CHANGE OVER CONTROL: −7.23
[2]; gene KIF2C
  MEAN FOLD CHANGE OVER CONTROL: −2.52
[2]; gene KIF5A
  MEAN FOLD CHANGE OVER CONTROL: −11.04
[2]; gene KLRG1
  MEAN FOLD CHANGE OVER CONTROL: −24.24
[2]; gene KRT13
  MEAN FOLD CHANGE OVER CONTROL: −3.34
[2]; gene LCP2
  MEAN FOLD CHANGE OVER CONTROL: −11.85
[2]; gene LIMS2
  MEAN FOLD CHANGE OVER CONTROL: −57.61
[2]; gene LNX
  MEAN FOLD CHANGE OVER CONTROL: −87.48
[2]; gene LPAAT-E (first entry)
  MEAN FOLD CHANGE OVER CONTROL: −11.94
[2]; gene LPAAT-E (second entry)
  MEAN FOLD CHANGE OVER CONTROL: −2.40
[2]; gene LRP1B
  MEAN FOLD CHANGE OVER CONTROL: −15.01
[2]; gene LTB
  MEAN FOLD CHANGE OVER CONTROL: −12.57
[2]; gene MAD2L1
  MEAN FOLD CHANGE OVER CONTROL: −3.14
[2]; gene MAP6
  MEAN FOLD CHANGE OVER CONTROL: −12.89
[2]; gene MAPK13
  MEAN FOLD CHANGE OVER CONTROL: −2.14
[2]; gene MAPT
  MEAN FOLD CHANGE OVER CONTROL: −26.53
[2]; gene MAZ
  MEAN FOLD CHANGE OVER CONTROL: −1.89
[2]; gene MCM6
  MEAN FOLD CHANGE OVER CONTROL: −1.97
[2]; gene MCM7
  MEAN FOLD CHANGE OVER CONTROL: −2.69
[2]; gene MEA
  MEAN FOLD CHANGE OVER CONTROL: −2.39
[2]; gene MGAT4A
  MEAN FOLD CHANGE OVER CONTROL: −10.83
[2]; gene MIS12
  MEAN FOLD CHANGE OVER CONTROL: −2.20
[2]; gene MPZL1
  MEAN FOLD CHANGE OVER CONTROL: −2.04
[2]; gene MRPL1
  MEAN FOLD CHANGE OVER CONTROL: −2.02
[2]; gene MRPL11
  MEAN FOLD CHANGE OVER CONTROL: −2.97
[2]; gene MRPL13
  MEAN FOLD CHANGE OVER CONTROL: −2.16
[2]; gene MRPL23
  MEAN FOLD CHANGE OVER CONTROL: −2.29
[2]; gene MRPL39
  MEAN FOLD CHANGE OVER CONTROL: −2.20
[2]; gene MSLN
  MEAN FOLD CHANGE OVER CONTROL: −17.46
[2]; gene MT1A
  MEAN FOLD CHANGE OVER CONTROL: −16.21
[2]; gene MT2A
  MEAN FOLD CHANGE OVER CONTROL: −2.09
[2]; gene MTIF2
  MEAN FOLD CHANGE OVER CONTROL: −59.05
[2]; gene MXD3
  MEAN FOLD CHANGE OVER CONTROL: −2.66
[2]; gene MYBPC2
  MEAN FOLD CHANGE OVER CONTROL: −21.22
[2]; gene MYO15A
  MEAN FOLD CHANGE OVER CONTROL: −50.59
[2]; gene NCF1
  MEAN FOLD CHANGE OVER CONTROL: −33.67
[2]; gene NCF2
  MEAN FOLD CHANGE OVER CONTROL: −21.83
[2]; gene NDUFA6
  MEAN FOLD CHANGE OVER CONTROL: −2.51
[2]; gene NDUFB3
  MEAN FOLD CHANGE OVER CONTROL: −15.58
[2]; gene NDUFV3
  MEAN FOLD CHANGE OVER CONTROL: −10.52
[2]; gene NEB
  MEAN FOLD CHANGE OVER CONTROL: −6.89
[2]; gene NFATC1
  MEAN FOLD CHANGE OVER CONTROL: −16.69
[2]; gene NFKBIB
  MEAN FOLD CHANGE OVER CONTROL: −2.01
[2]; gene NMI
  MEAN FOLD CHANGE OVER CONTROL: −2.41
[2]; gene NMU
  MEAN FOLD CHANGE OVER CONTROL: −2.12
[2]; gene NR0B1
  MEAN FOLD CHANGE OVER CONTROL: −15.94
[2]; gene NR2E1
  MEAN FOLD CHANGE OVER CONTROL: −54.82
[2]; gene NR2E3
  MEAN FOLD CHANGE OVER CONTROL: −14.89
[2]; gene NRG1
  MEAN FOLD CHANGE OVER CONTROL: −17.54
[2]; gene NT5C3
  MEAN FOLD CHANGE OVER CONTROL: −2.08
[2]; gene NT5E
  MEAN FOLD CHANGE OVER CONTROL: −17.10
[2]; gene NTHL1
  MEAN FOLD CHANGE OVER CONTROL: −2.34
[2]; gene NUCKS
  MEAN FOLD CHANGE OVER CONTROL: −2.02
[2]; gene NUDT1
  MEAN FOLD CHANGE OVER CONTROL: −1.89
[2]; gene NUP107
  MEAN FOLD CHANGE OVER CONTROL: −2.68
[2]; gene OLR1
  MEAN FOLD CHANGE OVER CONTROL: −16.33
[2]; gene OXCT
  MEAN FOLD CHANGE OVER CONTROL: −2.68
[2]; gene PAFAH1B1
  MEAN FOLD CHANGE OVER CONTROL: −12.85
[2]; gene PAFAH1B2
  MEAN FOLD CHANGE OVER CONTROL: −2.25
[2]; gene PAICS
  MEAN FOLD CHANGE OVER CONTROL: −2.03
[2]; gene PCDH7
  MEAN FOLD CHANGE OVER CONTROL: −19.65
[2]; gene PCSK2
  MEAN FOLD CHANGE OVER CONTROL: −16.89
[2]; gene PDCD5
  MEAN FOLD CHANGE OVER CONTROL: −2.21
[2]; gene PDE11A
  MEAN FOLD CHANGE OVER CONTROL: −16.85
[2]; gene PECAM1
  MEAN FOLD CHANGE OVER CONTROL: −17.53
[2]; gene PFKL
  MEAN FOLD CHANGE OVER CONTROL: −10.55
[2]; gene PHAX
  MEAN FOLD CHANGE OVER CONTROL: −2.17
[2]; gene PHF5A
  MEAN FOLD CHANGE OVER CONTROL: −2.95
[2]; gene PIR51
  MEAN FOLD CHANGE OVER CONTROL: −3.73
[2]; gene PLK4
  MEAN FOLD CHANGE OVER CONTROL: −2.39
[2]; gene PLXNA3
  MEAN FOLD CHANGE OVER CONTROL: −8.04
[2]; gene SULT4A1, text statement
  fold down-regulation of SULT4A1: ~300 fold
[2]; gene SYNE1, text statement
  fold down-regulation of the SYNE1 spectrin repeats: 1500 fold
IL-4; 1 nM, read-out: % Growth Inhibition
  inhibition at 0.001 µM: 8%
IL-4; 10 nM, read-out: % Growth Inhibition
  inhibition at 0.01 µM: 7%
IL-4; 0.1 μM, read-out: % Growth Inhibition
  inhibition at 0.1 µM: 2%
IL-4; 1 μM, read-out: % Growth Inhibition
  inhibition at 1 µM: -9%
IL-4; 10 μM, read-out: % Growth Inhibition
  inhibition at 10 µM: 105%
IL-4; IL-4 release
  IC50: 3.33 µM
